Read-outs that look alike come from different tables or passages of the source.
Columns and labels:
[1] = molecular target: T1, human metabotropic glutamate receptor mGluR5 (Homo sapiens, UniProt P41594); experiment: Cytosolic calcium studies with stably transfected cells (h5CHO), functional assay of mGluR5 receptors; type: cell-based; settings: for h left shift: h5CHO cells; for EC50: positive modulators, h5CHO cells preincubated with modulator, stimulated by an EC20 concentration of L-glutamate, read-out: hEC50
T1 construct: expressed in transfected cells; host or cells: CHO-K1 (h5CHO), IPTG-inducible
T1 sequence (P41594 21-1212): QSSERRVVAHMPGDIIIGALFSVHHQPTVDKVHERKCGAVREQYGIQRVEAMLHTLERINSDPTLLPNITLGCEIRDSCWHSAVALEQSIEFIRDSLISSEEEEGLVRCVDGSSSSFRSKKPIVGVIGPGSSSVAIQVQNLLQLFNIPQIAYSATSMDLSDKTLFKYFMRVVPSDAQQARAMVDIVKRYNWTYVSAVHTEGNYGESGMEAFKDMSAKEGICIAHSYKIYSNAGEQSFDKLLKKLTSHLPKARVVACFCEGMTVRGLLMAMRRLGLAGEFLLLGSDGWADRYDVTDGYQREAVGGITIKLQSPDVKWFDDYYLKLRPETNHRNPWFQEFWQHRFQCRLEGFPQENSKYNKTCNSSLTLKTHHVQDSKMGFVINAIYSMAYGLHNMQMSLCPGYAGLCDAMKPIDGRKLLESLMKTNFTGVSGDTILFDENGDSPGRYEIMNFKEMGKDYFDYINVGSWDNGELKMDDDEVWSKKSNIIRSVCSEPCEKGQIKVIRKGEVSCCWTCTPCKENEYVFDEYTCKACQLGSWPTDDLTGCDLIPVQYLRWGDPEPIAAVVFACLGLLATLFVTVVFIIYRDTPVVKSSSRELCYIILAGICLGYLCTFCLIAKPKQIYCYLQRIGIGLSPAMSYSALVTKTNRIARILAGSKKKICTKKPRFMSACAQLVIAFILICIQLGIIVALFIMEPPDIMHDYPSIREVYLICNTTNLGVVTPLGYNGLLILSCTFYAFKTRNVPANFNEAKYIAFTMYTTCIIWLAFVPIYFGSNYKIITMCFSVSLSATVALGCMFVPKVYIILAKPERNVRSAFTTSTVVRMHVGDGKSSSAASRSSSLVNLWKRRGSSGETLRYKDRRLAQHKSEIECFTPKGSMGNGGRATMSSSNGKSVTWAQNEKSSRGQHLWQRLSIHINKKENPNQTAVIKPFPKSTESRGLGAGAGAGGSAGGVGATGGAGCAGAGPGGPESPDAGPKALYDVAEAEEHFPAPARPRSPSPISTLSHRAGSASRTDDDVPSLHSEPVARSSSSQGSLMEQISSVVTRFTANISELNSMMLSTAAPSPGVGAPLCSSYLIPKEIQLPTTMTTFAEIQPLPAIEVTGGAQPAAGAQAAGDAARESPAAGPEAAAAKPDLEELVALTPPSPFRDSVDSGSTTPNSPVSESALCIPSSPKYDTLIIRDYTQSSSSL
Summary of the method: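 IPTG-induced h5CHO (CHO-K1 expressing human mGluR5) loaded with calcium dye; compounds (0.5% DMSO) added 5 min before agonist. NAM IC50 against L-quisqualate at ~EC80; PAM EC50 with EC20 L-glutamate. FLIPR fluorescence, max-minus-min, % of maximal response, logistic fit.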

mGluR5 receptors = molecular target: T2, mGluR5 receptors (Rattus norvegicus, UniProt P31424); experiment: Cytosolic calcium studies with astrocytes (FLIPR), functional assay of mGluR5 receptors; type: cell-based
T2 construct: Primary astrocyte cultures are prepared from cortices of newborn rats; endogenous in cells; host or cells: primary cortical astrocytes from Sprague-Dawley rat pups (2-4 d old)
T2 sequence (P31424 21-1203): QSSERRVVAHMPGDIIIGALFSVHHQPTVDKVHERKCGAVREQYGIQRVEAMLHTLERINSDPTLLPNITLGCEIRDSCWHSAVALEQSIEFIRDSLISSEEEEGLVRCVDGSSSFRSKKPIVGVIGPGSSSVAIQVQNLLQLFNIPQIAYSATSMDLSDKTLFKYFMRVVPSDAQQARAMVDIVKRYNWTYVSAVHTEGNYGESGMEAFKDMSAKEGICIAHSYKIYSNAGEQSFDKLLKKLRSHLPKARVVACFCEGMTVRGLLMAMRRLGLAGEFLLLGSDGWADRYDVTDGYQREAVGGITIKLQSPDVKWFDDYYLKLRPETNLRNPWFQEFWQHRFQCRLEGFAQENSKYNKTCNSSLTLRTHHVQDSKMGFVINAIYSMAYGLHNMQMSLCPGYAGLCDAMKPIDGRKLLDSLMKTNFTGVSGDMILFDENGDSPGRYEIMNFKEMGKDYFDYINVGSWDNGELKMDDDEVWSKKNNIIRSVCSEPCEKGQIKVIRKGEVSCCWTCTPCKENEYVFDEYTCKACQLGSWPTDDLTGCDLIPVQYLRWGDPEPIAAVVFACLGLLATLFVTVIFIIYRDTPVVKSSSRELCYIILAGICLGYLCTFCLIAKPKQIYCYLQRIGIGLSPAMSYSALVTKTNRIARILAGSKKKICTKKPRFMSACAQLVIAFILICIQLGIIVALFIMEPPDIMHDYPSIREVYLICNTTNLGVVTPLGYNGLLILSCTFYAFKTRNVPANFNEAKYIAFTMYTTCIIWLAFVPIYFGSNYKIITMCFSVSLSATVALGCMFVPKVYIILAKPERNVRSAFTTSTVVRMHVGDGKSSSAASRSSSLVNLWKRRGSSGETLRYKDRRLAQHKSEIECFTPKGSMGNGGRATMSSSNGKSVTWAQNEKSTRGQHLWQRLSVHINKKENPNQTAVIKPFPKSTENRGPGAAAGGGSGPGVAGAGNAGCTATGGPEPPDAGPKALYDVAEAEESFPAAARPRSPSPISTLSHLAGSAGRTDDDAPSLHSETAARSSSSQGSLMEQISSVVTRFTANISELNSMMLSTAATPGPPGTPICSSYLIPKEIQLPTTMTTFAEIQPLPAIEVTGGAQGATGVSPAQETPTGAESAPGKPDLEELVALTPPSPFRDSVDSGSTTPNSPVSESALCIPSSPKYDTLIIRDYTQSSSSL
Summary of the method: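 Rat cortical primary astrocytes at 14-15 DIV, loaded with Ca-sensitive dye for 2 h at RT, pH 7.3 buffer; FLIPR fluorescence after L-quisqualate (100 nM), antagonists pre-incubated 10 min. PAMs: quisqualate curves ± 10 µM modulator, or modulator curves at fixed 10-30 nM quisqualate. Max-min responses as % control, logistic fit.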

mGluR5 binding site = molecular target: T3, mGluR5 binding site (Rattus norvegicus, UniProt P31424); experiment: [3H]-M-MPEP displacement studies on rat cortical membranes; settings: Table A3, [3H]-M-MPEP 2 nM, 4°C for 1 h, median, read-out: Ki (MMPEP)
T3 construct: from tissue; host or cells: cortex of adult male Sprague-Dawley rats, membrane preparation
T3 sequence (P31424 21-1203): as above
Protocol: Tissue preparation is performed according to Foster & Wong (Br. J. Pharmacol., 1987, 91, 403-409) with some modifications. Anaesthetised male Sprague-Dawley rats (200-250 g, Janvier, Le Genest-Isle, France) are decapitated and their brains are removed rapidly. The cortex is dissected out and processed as described by Parsons, et al. (J. Pharmacol. Exp. Ther., 1997, 283(3): 1264-1275). For isolation of the cell membranes, the cortices are homogenized in 20 volumes of ice-cold 0.32 M sucrose (Sigma-Aldrich, Taufkirchen, Germany) using a glass-Teflon homogenizer. The homogenate is centrifuged at 1000 x g for 10 minutes, the pellet is discarded and the supernatant centrifuged at 20,000 x g for 20 minutes. The resulting pellet is resuspended in 20 volumes of distilled water and centrifuged for 20 minutes at 8000 x g. The supernatant and the buffy coat are then centrifuged six times (48,000 x g for 20 minutes) in the presence of 5 mM Tris-HCl, pH 7.5. All centrifugation steps are carried out at 4°C. After resuspension in 5 volumes of 5 mM Tris-HCl, pH 7.5, the membrane suspension is frozen rapidly at -80°C.
On the day of assay, the membrane suspensions are thawed, centrifuged (48,000 x g for 20 minutes) and then resuspended in 50 mM Tris-HCl, pH 7.5 (assay buffer). The amount of protein in the final membrane preparation is determined according to the method of Lowry, et al. (J. Biol. Chem., 1951, 193, 256-275). The final concentration used for our studies is 400 µg / ml.
The Tecan robotic system designed for binding assays is loaded with the membrane solution, a 96 well stock plate containing the solutions for bound control (buffer/DMSO 10%), unlabeled MPEP (10 µM) for evaluation of non-specific binding, all compounds to be tested (at 20-fold concentrations), various empty 96-well plates for dilutions and the final assay plates, as well as a 96-well plate filled with the radioligand.
Before performing displacement studies, saturation experiments are performed to determine the equilibrium dissociation constant (Kd, Cheng and Prussoff, Biochem. Pharmacol., 1973, 22: 3099-3108) of [^3H]-M-MPEP, which is a parameter for the affinity of the radioligand to the binding site. On the basis of the saturation experiments, a final [^3H]-M-MPEP concentration of 2 nM was selected.
Firstly, the assay plates are loaded with membrane solution and are shaken at 4°C. The mother plates were then prepared by pipetting the compounds (n = 5) into assay buffer/10% DMSO to obtain the desired final concentrations. After transferring radioligand into the assay plates, the compounds are added (including the non-specific binding control containing MPEP). The final DMSO concentration is always 1 %. The assay plates are incubated and shaken at 4°C for 1 h, before the mixture is exhausted as rapidly as possible via a vacuum manifold using the Multiscreen HTS glass fibre (type B) high flow filter plates (Millipore, Schwalbach, Germany) under a constant vacuum of 450 mbar. The membranes are washed four times with cold assay buffer (100 µL). 50 µL of Ultima Gold scintillation cocktail (PerkinElmer) is added to the wet filter plates and incubated at rt overnight before counting the disintegration per minutes using a liquid scintillation counter (MicroBeta, PerkinElmer).
For the evaluation of the test compound binding affinity to the mGluR5 binding site and its potency to displace [^3H]-M-MPEP, the measured radioactivity of the radioligand alone was set as 100% bound control and the non-specific binding of the radioligand represented the 0% control. The residual radioactivity after displacement of the test compound was then corrected with respect to the set controls. Data are given as median IC50 and Ki, respectively.

[2] = Table A1, left shift of agonist EC50, dose response curves in the presence of 10 µM modulator or vehicle
[3] = Table A1, left shift of quisqualate EC50 in the presence and absence of 10 µM modulator
[4] = Table A1, positive modulators, fixed concentration of quisqualate (normally 10-30 nM), read-out: rEC50
[5] = Table A3 (SAMs / very weak PAMs), agonist EC50 shift with 10 µM modulator or vehicle

| Compound | h left shift [1, 2] | EC50 ([1]; Table A1) | r left shift (mGluR5 receptors; [3]) | EC50 (mGluR5 receptors; [4]) | h left shift [1, 5] | r left shift (mGluR5 receptors; Table A3 (SAMs / very weak PAMs), quisqualate EC50 shift with 10 µM modulator) | EC50 (mGluR5 receptors; Table A3, given in brackets where Ki is n.d., read-out: r EC50) | Ki (mGluR5 binding site) |
| --- | --- | --- | --- | --- | --- | --- | --- | --- |
| O=S(=O)(N1CCCCCC1)N1CCc2ncc(C#Cc3ccccc3)cc2C1 [Example 56, 6-(Azepan-1-ylsulfonyl)-3-(phenylethynyl)-5,6,7,8-tetrahydro-1,6-naphthyridine] | 3.0-fold | 0.499 µM | 3.3-fold | 0.296 µM |  |  |  |  |
| COC(=O)N1CC[C@H]2c3ncc(C#Cc4ccccc4)cc3CC[C@H]21 [Example 71, (6aR,9aR)-Methyl 3-(phenylethynyl)-6,6a,9,9a-tetrahydro-5H-pyrrolo[2,3-h]quinoline-7(8H)-carboxylate] | 2.2-fold | 0.241 µM | 1.3-fold | 0.0327 µM |  |  |  |  |
| COC(=O)N1CC[C@H]2c3ncc(C#Cc4cccc(F)c4)cc3CC[C@H]21 [Example 72, (6aR,9aR)-Methyl 3-((3-fluorophenyl)ethynyl)-6,6a,9,9a-tetrahydro-5H-pyrrolo[2,3-h]quinoline-7(8H)-carboxylate] | 1.7-fold |  | 1.3-fold | 0.0273 µM |  |  |  |  |
| CCOC(=O)C(=O)N1CCc2ncc(C#Cc3ccccc3)cc2C1 [Example 77, Ethyl 2-oxo-2-(3-(phenylethynyl)-7,8-dihydro-1,6-naphthyridin-6(5H)-yl)acetate] | 2.8-fold | 0.0254 µM | 2.8-fold | 0.0221 µM |  |  |  |  |
| (rac)-cis-Methyl 3-((3-fluorophenyl)ethynyl)-6a,7,9,9a-tetrahydro-5H-pyrrolo[3,4-h]quinoline-8(6H)-carboxylate [Example 32] |  |  |  |  | 0.9-fold |  |  | 0.0493 µM |

Second part, the compound after the results:

| h left shift [1, 2] | EC50 ([1]; Table A1) | r left shift (mGluR5 receptors; [3]) | EC50 (mGluR5 receptors; [4]) | h left shift [1, 5] | r left shift (mGluR5 receptors; Table A3 (SAMs / very weak PAMs), quisqualate EC50 shift with 10 µM modulator) | EC50 (mGluR5 receptors; Table A3, given in brackets where Ki is n.d., read-out: r EC50) | Ki (mGluR5 binding site) | Compound |
| --- | --- | --- | --- | --- | --- | --- | --- | --- |
| 1.7-fold | 2.02 µM |  | 2.05 µM |  |  |  |  | CN1CCN(S(=O)(=O)N2CCc3ncc(C#Cc4ccccc4)cc3C2)CC1 [Example 78, 6-((4-Methylpiperazin-1-yl)sulfonyl)-3-(phenylethynyl)-5,6,7,8-tetrahydro-1,6-naphthyridine] |
|  |  |  |  | 1.5-fold | 1.5-fold | 0.0511 µM |  | CC(C)S(=O)(=O)N1CCc2ncc(C#Cc3ccccc3)cc2C1 [Example 81, 6-(Isopropylsulfonyl)-3-(phenylethynyl)-5,6,7,8-tetrahydro-1,6-naphthyridine] |

From patent EP2650284A1, “Heterocyclic derivatives as metabotropic glutamate receptor modulators” (Merz Pharma GmbH & Co. KGaA, priority 2012, dated 2013)
